Experimental data reported in patent US8569295B2, “Bicyclic urea compounds” (Merck Patent GmbH, priority 2009, dated 2013).

Biological target: T1, GST-Aurora A (Homo sapiens, UniProt O14965)
T1 construct: N-terminal GST fusion with full length Aurora A (1-403 amino acids); purchased Carna Biosciences 05-101
T1 sequence (O14965 1-403): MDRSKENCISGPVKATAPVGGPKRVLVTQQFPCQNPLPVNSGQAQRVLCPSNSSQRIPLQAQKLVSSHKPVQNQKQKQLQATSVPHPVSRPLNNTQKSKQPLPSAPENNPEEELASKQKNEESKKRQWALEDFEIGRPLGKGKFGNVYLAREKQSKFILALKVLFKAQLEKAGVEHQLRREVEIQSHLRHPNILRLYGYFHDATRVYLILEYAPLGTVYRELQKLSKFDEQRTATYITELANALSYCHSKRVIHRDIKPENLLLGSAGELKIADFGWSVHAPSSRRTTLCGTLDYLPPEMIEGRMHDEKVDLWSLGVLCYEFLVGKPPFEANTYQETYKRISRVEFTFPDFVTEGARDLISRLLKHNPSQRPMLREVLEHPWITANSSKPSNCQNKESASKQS
Test: Aurora A kinase biochemical mobility shift assay (Caliper LC3000 / Desktop Profiler)
Conditions: AK A (Aurora kinase A) inhibition
Method: The Aurora assays described here are performed on two Caliper Life Sciences systems: the LC3000 and the Desktop Profiler. The RON kinase assays are performed on the Desktop Profiler only. These provide data on enzyme activity via measurement of the relative amounts of phosphorylated or unphosphorylated fluorescently labelled substrate peptide at the end of an enzymatic reaction. These different states of peptide are resolved by applying a potential difference across the sample. The presence of the charged phosphate group on the product (as opposed to the substrate) causes a different peptide mobility between the two peptides. This is visualized by excitation of the fluorescent label on the substrate and product peptides and represented as peaks within the analysis software.
In order to measure inhibitor activity of Aurora A inhibitors in the Caliper Life Sciences LC3000, a TTP Mosquito liquid handling instrument is used to place 0.25 ul of the appropriate concentration of inhibitor in 100% DMSO (for a dose response curve calculation) into each well of a 384-well plate. To this reaction components are added to a final volume of 25 ul: • 0.067 ng/ul GST-Aurora A (Carna Biosciences 05-101. N-terminal GST fusion with full length Aurora A (1-403 amino acids), accession number NP_940835.1). • 15 uM ATP (Fluka, 02055) • 1 mM DTT (Sigma, D0632) • 1 mM MgCl2 (Sigma, M1028) • 1 uM substrate peptide (sequence FITC-LRRASLG-(CONH2), synthesized by Tufts Peptide Synthesis service. • 100 mM HEPES pH 7.5 (Calbiochem, 391338) • 0.015% Brij-35 (Sigma, B4184)
The reaction is incubated for 90 min at 25 C, and then stopped by the addition of 70 ul of Stop buffer (100 mM HEPES pH 7.5, 0.015% Brij-35, 10 mM EDTA (Sigma, E7889)).
The plate is read on a Caliper LC3000 in an Off-Chip mobility shift assay format, using the following parameters for a 12-sipper chip: screening pressure −1.8 psi, upstream voltage −2700, downstream voltage −1000. These conditions cause unphosphorylated substrate and phosphorylated product peptide to resolve as separate peaks allowing direct measurement of percentage of conversion of substrate to product. The percent conversion can be plotted against concentration of inhibitor to produce a sigmoidal dose response curve, from which an IC50 can be calculated using XLFit for Microsoft Excel.
The Desktop Profiler utilizes the same priniciple as the LC3000 for calculating percentage conversion of a substrate to product. Caliper Life Sciences provides proprietary flash frozen pre-made 384 well plates containing selected kinases. Each column in the 384 well plate contains a particular selected kinase. A second plate, the ‘substrate plate’ contains a mix of fluorescently labeled peptide substrate and ATP. These are arranged in columns so that transfer for substrate plate to enzyme plate provides the correct enzyme with the correct substrate/ATP concentration. Compounds are added to a thawed enzyme plate in the desired format, in single concentrations. Reactions are initiated by transfer of the substrate/ATP mix from the substrate plate. The enzyme plate is incubated for 90 minutes at 25 C. The reaction is stopped by addition of 70 ul of Stop Buffer (100 mM HEPES pH 7.5, 0.015% Brij-35, 10 mM EDTA (Sigma, E7889)).
Reading of the plate in the Profiler is identical to the LC3000, and the ratio between substrate and product peaks provides the activity of the enzyme in that well. This is best represented by a plate heat map which colors each well by percent inhibition as compared to positive and negative controls (no inhibitors and no ATP respectively).

IC50 [nM]	SMILES
10 to 100	COc1ccc(CN2Cc3c(Nc4ccc(NC(=O)c5ccc(F)cc5C(F)(F)F)cc4F)ccnc3NC2=O)cc1 [Example 112, 4-fluoro-N-(3-fluoro-4-{[3-(4-methoxybenzyl)-2-oxo-1,2,3,4-tetrahydropyrido[2,3-d]pyrimidin-5-yl]amino}phenyl)-2-(trifluoromethyl)benzamide]
10 to 100	O=C1NCc2c(Nc3ccc(NC(=O)c4cccc(F)c4)cc3F)ccnc2N1 [Example 117, 3-fluoro-N-{3-fluoro-4-[(2-oxo-1,2,3,4-tetrahydropyrido[2,3-d]pyrimidin-5-yl)amino]phenyl}benzamide]
< 10	O=C1NCc2c(Nc3ccc(NC(=O)c4ccc(F)cc4C(F)(F)F)cc3F)ccnc2N1 [Example 116, 4-fluoro-N-{3-fluoro-4-[(2-oxo-1,2,3,4-tetrahydropyrido[2,3-d]pyrimidin-5-yl)amino]phenyl}-2-(trifluoromethyl)benzamide]
10 to 100	O=C(CC1CC1)Nc1ccc(Nc2ccnc3c2CNC(=O)N3)cc1 [Example 108, 2-cyclopropyl-N-{4-[(2-oxo-1,2,3,4-tetrahydropyrido[2,3-d]pyrimidin-5-yl)amino]phenyl}acetamide]
100 to 1000	O=C(Nc1ccc(Nc2ccnc3c2C2OCCN2C(=O)N3)cc1)c1ccc(F)cc1C(F)(F)F (stereo not drawn) [Example 43, 4-fluoro-N-(4-(5-oxo-3,5,6,10b-tetrahydro-2H-oxazolo[3,2-c]pyrido [3,2-e]pyrimidin-10-ylamino)phenyl)-2-(trifluoromethyl) benzamide]
10 to 100	COc1ccc(CN2Cc3c(-c4ccc(C(=O)NCc5ccc(F)c(OC)c5)s4)ccnc3NC2=O)cc1 [Example 129, N-(4-fluoro-3-methoxybenzyl)-5-[3-(4-methoxybenzyl)-2-oxo-1,2,3,4-tetrahydropyrido[2,3-d]pyrimidin-5-yl]thiophene-2-carboxamide]
100 to 1000	COc1ccc(CN2Cc3c(Nc4ccc(NC(=O)Nc5ccc(F)c(F)c5)cc4)ccnc3NC2=O)cc1 [Example 120, N-(3,4-difluorophenyl)-N′-(4-{[3-(4-methoxybenzyl)-2-oxo-1,2,3,4-tetrahydropyrido[2,3-d]pyrimidin-5-yl]amino}phenyl)urea]
100 to 1000	O=C(CC(F)(F)F)Nc1ccc(Nc2ccnc3c2CNC(=O)N3)cc1 [Example 107, 3,3,3-trifluoro-N-{4-[(2-oxo-1,2,3,4-tetrahydropyrido[2,3-d]pyrimidin-5-yl)amino]phenyl}propanamide]
10 to 100	O=C(Nc1ccc(Nc2ccnc3c2CNC(=O)N3)cc1)Nc1ccc(F)cc1C(F)(F)F [Example 121, N-[4-fluoro-2-(trifluoromethyl)phenyl]-N′-{4-[(2-oxo-1,2,3,4-tetrahydropyrido[2,3-d]pyrimidin-5-yl)amino]phenyl}urea]
10 to 100	CN1Cc2c(Nc3ccc(NC(=O)c4ccccc4F)cc3F)ccnc2NC1=O [Example 41, 2-fluoro-N-(3-fluoro-4-(3-methyl-2-oxo-1,2,3,4-tetrahydropyrido [2,3-d]pyrimidin-5-ylamino)phenyl) benzamide]
< 10	O=C(Nc1ccc(Nc2ccnc3c2CN(CC(F)(F)F)C(=O)N3)c(F)c1)c1ccc(F)cc1C(F)(F)F [Example 40, 4-fluoro-N-(3-fluoro-4-(2-oxo-3-(2,2,2-trifluoroethyl)-1,2,3,4-tetrahydropyrido[2,3-d]pyrimidin-5-ylamino)phenyl)-2-(trifluoromethyl) benzamide]

More lines, now with the values behind:

SMILES	IC50 [nM]
CN1Cc2c(Nc3ccc(NC(=O)c4cccc(F)c4F)c(F)c3)ccnc2NC1=O [Example 39, 2,3-difluoro-N-(2-fluoro-4-(3-methyl-2-oxo-1,2,3,4-tetrahydropyrido [2,3-d]pyrimidin-5-ylamino)phenyl) benzamide]	10 to 100
COc1ccc(CN2Cc3c(Nc4ccc(NC(=O)c5ccc(F)cc5C(F)(F)F)cc4)ccnc3NC2=O)cc1 [Example 5, 4-fluoro-N-(4-(3-(4-methoxybenzyl)-2-oxo-1,2,3,4-tetrahydropyrido [2,3-d]pyrimidin-5-ylamino)phenyl)-2-(trifluoromethyl) benzamide]	100 to 1000
O=C(Nc1ccc(Nc2ccnc3c2CN(C2CC2)C(=O)N3)cc1)c1ccc(F)cc1C(F)(F)F [Example 15, N-(4-(3-cyclopropyl-2-oxo-1,2,3,4-tetrahydropyrido [2,3-d]pyrimidin-5-ylamino)phenyl)-4-fluoro-2-(trifluoromethyl) benzamide]	10 to 100
O=C(Nc1ccc(Nc2ccnc3c2CN(c2ccccc2)C(=O)N3)cc1)c1ccc(F)cc1C(F)(F)F [Example 27, 4-fluoro-N-(4-(2-oxo-3-phenyl-1,2,3,4-tetrahydropyrido [2,3-d]pyrimidin-5-ylamino)phenyl)-2-(trifluoromethyl) benzamide]	10 to 100
CN1Cc2c(Nc3ccc(NC(=O)c4cccc(F)c4)cc3F)ccnc2NC1=O [Example 20, 3-fluoro-N-(3-fluoro-4-(3-methyl-2-oxo-1,2,3,4-tetrahydropyrido [2,3-d]pyrimidin-5-ylamino)phenyl) benzamide]	< 10
CN1Cc2c(Nc3ccc(NC(=O)c4ccccc4)cc3)ccnc2NC1=O [Example 22, N-(4-(3-methyl-2-oxo-1,2,3,4-tetrahydropyrido [2,3-d]pyrimidin-5-ylamino)phenyl) benzamide]	10 to 100
O=C(Nc1ccc(Nc2ccnc3c2CN(c2ccc(CN4CCCC4)cc2)C(=O)N3)cc1)c1ccc(F)cc1C(F)(F)F [Example 8, 4-fluoro-N-(4-(2-oxo-3-(4-(pyrrolidin-1-ylmethyl)phenyI)-1,2,3,4-tetrahydropyrido[2,3-d]pyrimidin-5-ylamino)phenyl)-2-(trifluoromethyl)benzamide]	100 to 1000
CN1Cc2c(Nc3ccc(NC(=O)CC4CC4)cc3)ccnc2NC1=O [Example 23, 2-cyclopropyl-N-(4-(3-methyl-2-oxo-1,2,3,4-tetrahydropyrido [2,3-d]pyrimidin-5-ylamino)phenyl) acetamide]	100 to 1000
O=C(Nc1ccc(Nc2ccnc3c2CN(CC(F)(F)F)C(=O)N3)cc1)c1ccc(F)cc1C(F)(F)F [Example 38, 4-fluoro-N-(4-(2-oxo-3-(2,2,2-trifluoroethyl)-1,2,3,4-tetrahydropyrido [2,3-d]pyrimidin-5-ylamino)phenyl)-2-(trifluoromethyl) benzamide]	10 to 100
O=C(Nc1ccc(Nc2ccnc3c2CN(CCCN2CCCC2=O)C(=O)N3)cc1)c1ccc(F)cc1C(F)(F)F [Example 31, 4-fluoro-N-(4-(2-oxo-3-(3-(2-oxopyrrolidin-1-yl)propyl)-1,2,3,4-tetrahydropyrido [2,3-d]pyrimidin-5-ylamino)phenyl)-2-(trifluoromethyl) benzamide]	10 to 100
CN1Cc2c(Nc3ccc(NC(=O)c4ccc(F)cc4C(F)(F)F)cc3)ccnc2NC1=O [Example 21, 4-fluoro-N-(4-(3-methyl-2-oxo-1,2,3,4-tetrahydropyrido [2,3-d]pyrimidin-5-ylamino)phenyl)-2-(trifluoromethyl) benzamide]	< 10
COc1ccc(CN2Cc3c(Nc4ccc(NC(=O)c5ccccc5)cc4)ccnc3NC2=O)cc1 [Example 2]	100 to 1000
O=C(Nc1ccc(Nc2ccnc3c2CN(C2CC2)C(=O)N3)cc1)c1ccccc1 [Example 14, N-(4-(3-cyclopropyl-2-oxo-1,2,3,4-tetrahydropyrido[2,3-d]pyrimidin-5-ylamino)phenyl) benzamide]	100 to 1000
